Results: patent US8071551B2, “Methods and compositions for treating diabetes” (BioHolding, Inc., priority 1999, dated 2011)

What was measured:
[1] = system: RCG Neuron (rat cerebral granule) cells; assay: Apoptosis induced by depletion of serum in RCG neuron cells (Hoechst 33258 staining, fluorescence microscope); assay type: cell-based; conditions: BME without serum, 10 hours, Hoechst dye 33258
Description: RCG neuronal cells are seeded into cell culture dishes in 400 μl cell culture medium (Eagle's basal medium, BME) containing 10% (v/v) FBS. At day two the now conditioned medium is removed and the cells are treated for 10 hours as follows:
Then the medium is replaced with 4% (w/v) paraformaldehyde, incubated for 15 minutes at room temperature, and the cells stained with Hoechst dye 33258 (8 μg/ml) for 15 minutes at room temperature. The apoptosis in the cells is evaluated using a fluorescence microscope by an evaluator blinded to the method of treatment.

[2] = system: Primary rat brain granule cells; assay: Apoptosis associated with serum depletion in primary rat brain granule cells; assay type: cell-based; conditions: α1-antitrypsin 3.0 mg/ml, one hour pretreatment, medium devoid of fetal bovine serum, 24 hours of culture
Description: Primary rat brain granule cells are pretreated for one hour in the absence or presence of α1-antitrypsin (3.0 mg/ml), followed by replacement of the cell culture medium with either control medium containing 10% (vol/vol) fetal bovine serum, medium devoid of fetal bovine serum, or medium devoid of fetal bovine serum but containing α1-antitrypsin.

Cc1cccc(Cc2nnc(C(=O)[C@@H](NC(=O)[C@@H]3CCCN3C(=O)[C@@H](NC(=O)OCc3ccccc3)C(C)C)C(C)C)o2)c1 [CE-2072, benzyloxcarbonyl-L-valyl-N-[1-(2-[5-(3-methylbenzyl)-1,3,4-oxadiazolyl]carbonyl)-2-(S)-Methylpropyl]-L-prolinamide, reference compound]
apoptosis induced by depletion of serum ([1]; CE-2072 60 μM in DMSO): blocked

lyophilized α1-antitrypsin: lyophilized preparation of the serine protease inhibitor α1-antitrypsin
apoptosis induced by depletion of serum ([1]; lyophilized AAT 50 μM): blocked

α1-Antitrypsin: serine protease inhibitor α1-antitrypsin
apoptosis associated with serum depletion [2]: completely reverses
